From patent US9982005B2, “Macrolides and methods of their preparation and use” (President and Fellows of Harvard College, priority 2013, dated 2018) come the findings set out here.

Each structure is given as a SMILES string. Converted amounts (≈) assume the structure as drawn. Where two headings read alike, the source gives them in different places. Where only a bound is given, the exact number is not on record here.

Format in all cases: cell-based
For assay [1], the system named is S. aureus (Newman, clinical isolate). Kind of assay: MIC, S. aureus Newman. Conditions: Staphylococcus aureus. From the text: (§1) We have collected MIC data for a total of 50 novel macrolides that this platform has produced against over 21 unique strains of B. subtilis, E. coli, S. aureus, S. pneumoniae, and H. influenzae, including several multidrug-resistant strains, with a special focus on macrolide resistant mechanisms (vide supra). Azithromycin was included as a control macrolide. CLSI standard procedures for broth dilution MIC determination were used. […] These genotypes can be constitutive or inducible. The finding that C4-epi (unnatural) isomers of the “azaketolide” macrolide class have enhanced activities relative to C4 natural isomers is very exciting.

A further assay deals with E. faecalis strains. Kind of assay: MIC against E. faecalis strains (Table M8). Conditions: Enterococcus faecalis, E. faecalis 29212.
The test system of the next assay is H. influenzae strains. Kind of assay: MIC against H. influenzae strains (Table M8). The settings on record: Haemophilus influenzae. In short, it runs like this: (§2)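 CLSI broth dilution; MIC read-out. Azithromycin run as reference macrolide.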
The next assay relates to S. pneumoniae strains. Kind of assay: MIC against S. pneumoniae strains (Tables M7, M8). The settings on record: Streptococcus pneumoniae. From the text: CLSI standard procedures for broth dilution MIC determination were used. […] These genotypes can be constitutive or inducible.
In another assay the test system is E. coli strains. Put plainly: MIC against E. coli strains (Table M7). The settings on record: Escherichia coli, ATCC25922, E. coli ATCC 25922. The method in brief: as §2
The next assay concerns A. baumannii strains. Kind of assay: MIC against A. baumannii strains (Table M8). The settings on record: Acinetobacter baumannii, BAA747, A. baumannii BAA747-1.
For the next assay, the system named is K. pneumoniae strains. Kind of assay: MIC against K. pneumoniae strains (Table M8). Conditions: Klebsiella pneumoniae, K. pneumoniae 10031.
The next assay relates to S. aureus strains. Kind of assay: MIC against S. aureus strains (Table M7). The settings on record: Staphylococcus aureus. In short, it runs like this: as §2
The test system of another assay is E. coli (MC4100). Put plainly: MIC, E. coli MC4100.
Source text: as §1

The test system of assay [2] is Spn1427 S. pneumoniae ermB positive mefA negative. Kind of assay: broth dilution MIC, S. pneumoniae Spn1427. The settings on record: Streptococcus pneumoniae.
Source text: as §1

In assay [3] the test system is Spn 106 S. pneumonia ATCC49619. Put plainly: broth dilution MIC, S. pneumoniae Spn 106. Conditions: Streptococcus pneumoniae; Spn 106 S. pneumonia ATCC49619; read-out: MIC.
Source text: as §1
(In general: Dilution methods test growth across graded concentrations, often in twofold steps.)

Assay [4] relates to Spn1537 S. pneumoniae ermB positive mefA positive. Put plainly: broth dilution MIC, S. pneumoniae Spn1537. Conditions: Streptococcus pneumoniae.
Source text: as §1

Assay [5] concerns SA506 S. aureus ermA positive msrA unknown. Put plainly: broth dilution MIC, S. aureus SA506. Conditions: Staphylococcus aureus.
Source text: as §1

Assay [6] concerns Spn160 S. pneumoniae ermB unknown mefA positive. Kind of assay: broth dilution MIC, S. pneumoniae Spn160. Conditions: Streptococcus pneumoniae; Spn160 S. pneumoniae ermB unknown mefA positive; read-out: MIC.
Source text: as §1

A further assay concerns EC878 E. coli tolC. Kind of assay: broth dilution MIC, E. coli EC878. Conditions: Escherichia coli. In short, it runs like this:
as §2

Assay [7] relates to Spn1533 S. pneumoniae ermB positive mefA positive. Kind of assay: broth dilution MIC, S. pneumoniae Spn1533. The settings on record: Streptococcus pneumoniae.
Source text: as §1

Assay [8] has as its system SA418 S. aureus ermA negative msrA positive. Kind of assay: broth dilution MIC, S. aureus SA418. Conditions: Staphylococcus aureus.
Source text: as §1

Assay [9] concerns SA1708 S. aureus ermA positive msrA negative. Kind of assay: broth dilution MIC, S. aureus SA1708. Conditions: Staphylococcus aureus.
Source text: as §1

In assay [10] the test system is SA183 S. aureus ermA positive msrA unknown. Put plainly: broth dilution MIC, S. aureus SA183. The settings on record: Staphylococcus aureus.
Source text: as §1

Assay [11] relates to BS1723 B. subtilis BS168 WT wild type. Kind of assay: broth dilution MIC, B. subtilis BS1723. Conditions: Bacillus subtilis, BS1723 B. subtilis BS168 WT wild type; read-out: MIC. In short, it runs like this:
as §2

Assay [12] deals with SA101 S. aureus ATCC29213. Kind of assay: broth dilution MIC, S. aureus SA101. The settings on record: Staphylococcus aureus, ATCC29213. The method in brief: as §2
For assay [13], the system named is SA557 S. aureus ermA unknown msrA positive. Put plainly: broth dilution MIC, S. aureus SA557. The settings on record: Staphylococcus aureus.
Source text: as §1

The subject of assay [14] is SA1707 S. aureus ermA negative msrA positive. Kind of assay: broth dilution MIC, S. aureus SA1707. The settings on record: Staphylococcus aureus.
Source text: as §1

Assay [15] relates to Spn1509 S. pneumoniae ermB positive mefA negative. Kind of assay: broth dilution MIC, S. pneumoniae Spn1509. The settings on record: Streptococcus pneumoniae.
Source text: as §1

In a further assay the test system is EC107 E. coli ATCC25922. Put plainly: broth dilution MIC, E. coli EC107. Conditions: Escherichia coli, read-out: MIC. In short, it runs like this: as §2
Another assay relates to BS1725 B. subtilis ermC. Put plainly: broth dilution MIC, B. subtilis BS1725. Conditions: Bacillus subtilis. In short, it runs like this:
as §2

The next assay deals with EC882 E. coli imp. Put plainly: broth dilution MIC, E. coli EC882. Conditions: Escherichia coli. In short, it runs like this:
as §2

The mark [16] stands for this setting: S. aureus (Newman, clinical isolate), round 1.
Where [17] appears, read: H. influenzae 49247, read-out: MIC H. influenzae (49247).
Where [18] appears, read: H. influenzae 49766, read-out: MIC H. influenzae (49766).
The mark [19] stands for this setting: S. pneumoniae 160, read-out: MIC S. pneumonae (160).
The mark [20] stands for this setting: S. pneumoniae 1509, read-out: MIC S. pneumoniae (1509).
Setting [21] is: S. pneumoniae 1533, read-out: MIC S. pneumoniae (1533).
[22] abbreviates: S. pneumoniae 1537, read-out: MIC S. pneumoniae (1537).
The mark [23] stands for this setting: S. pneumoniae 49619, read-out: MIC S. pneumoniae (49619).
The mark [24] stands for this setting: ATCC29213, S. aureus ATCC 29213, read-out: MIC S. aureus (ATCC 29213).
[25] abbreviates: S. aureus 506, read-out: MIC S. aureus (506).
Where [26] appears, read: S. aureus 1708, read-out: MIC S. aureus (1708).
The mark [27] stands for this setting: USA300, S. aureus USA300, read-out: MIC S. aureus (USA300).
The mark [28] stands for this setting: Escherichia coli, round 1, read-out: MIC.
[29] abbreviates: S. aureus (Neuman, clinical isolate), round 2.

On to `CC[C@H]1OC(=O)[C@H](C)C(=O)[C@H](C)[C@@H](O[C@@H]2OC(C)CC(N(C)C)C2O)[C@](C)(OC)C[C@@H](C)CN[C@H](C)[C@H]2N(CCCCCn3cc(-c4cccc(N)c4)nn3)C(=O)O[C@]12C` (stereo partly shown) [FSM-40349], for which the MIC in assay [1] (setting [16]) is 2 µg/mL (≈ 2.38 µM); in the assay on E. faecalis strains, 0.125 µg/mL (≈ 0.148 µM); with H. influenzae strains (setting [17]), 0.5 µg/mL (≈ 0.594 µM); in the assay with H. influenzae strains (setting [18]), 2 µg/mL (≈ 2.38 µM); in the assay with S. pneumoniae strains (setting [19]) it was 0.125 µg/mL (≈ 0.148 µM); in the assay with S. pneumoniae strains (setting [20]) it was 2 µg/mL (≈ 2.38 µM). The MIC in the assay with S. pneumoniae strains (setting [21]) is above 32 µg/mL; in the assay on S. pneumoniae strains (setting [22]), above 32 µg/mL; in the assay on S. pneumoniae strains (setting [23]) it was at most 0.0625 µg/mL; in the assay with E. coli strains, 8 µg/mL (≈ 9.5 µM); against A. baumannii strains it was 32 µg/mL (≈ 38 µM); in the assay on K. pneumoniae strains, 2 µg/mL (≈ 2.38 µM). Further, the MIC was 1 µg/mL (≈ 1.19 µM) with S. aureus strains (setting [24]); above 32 µg/mL with S. aureus strains (setting [25]); 1 µg/mL (≈ 1.19 µM) with S. aureus strains (setting [26]); 2 µg/mL (≈ 2.38 µM) with S. aureus strains (setting [27]); 16 µg/mL (≈ 19 µM) with E. coli (MC4100) (setting [28]).
`CCC[C@@H]1C[C@@H](C(=O)N[C@@H]([C@H]2O[C@H](SC)[C@H](O)[C@@H](O)[C@H]2O)[C@H](C)Cl)N(C)C1` [Clindamycin, clindamycin, reference compound]: the MIC in assay [2] was above 32 µg/mL; in [3], 0.0312 µg/mL (≈ 0.0734 µM); in [4], above 32 µg/mL; in assay [5], above 32 µg/mL; in [6], 0.0156 to 0.0312 µg/mL (≈ 0.0367 to 0.0734 µM); in the assay with EC878 E. coli tolC, 2 µg/mL (≈ 4.71 µM). Also, the MIC in assay [7] is above 32 µg/mL; in assay [8] it was 0.0625 to 0.125 µg/mL (≈ 0.147 to 0.294 µM); in assay [9] it was 0.25 µg/mL (≈ 0.588 µM); in assay [10], above 32 µg/mL; in [11] it was 1 µg/mL (≈ 2.35 µM); in [12], 0.125 µg/mL (≈ 0.294 µM). Further, the MIC was 0.125 µg/mL (≈ 0.294 µM) in assay [13]; 0.0625 to 0.125 µg/mL (≈ 0.147 to 0.294 µM) in assay [14]; 16 to 32 µg/mL (≈ 37.6 to 75.3 µM) in assay [15]; above 32 µg/mL in the assay on EC107 E. coli ATCC25922; 4 µg/mL (≈ 9.41 µM) with BS1725 B. subtilis ermC (BS1725 B. subtilis ermC (+ery)); 2 µg/mL (≈ 4.71 µM) against BS1725 B. subtilis ermC (BS1725 B. subtilis ermC (−ery)). The MIC in the assay on EC882 E. coli imp was 2 µg/mL (≈ 4.71 µM).
With `CC[C@H]1OC(=O)[C@H](C)C(=O)[C@H](C)[C@@H](O[C@@H]2OC(C)CC(N(C)C)C2O)/C(C)=C/CN(C)[C@H](C)[C@H]2N(CCCCn3cc(-c4cccc(N)c4)nn3)C(=O)O[C@]12C` (stereo partly shown) [FSM-30633], the MIC in assay [1] (setting [29]) is above 32 µg/mL; in the assay with E. faecalis strains, above 32 µg/mL; in the assay on H. influenzae strains (setting [17]) it was 32 µg/mL (≈ 40.9 µM); in the assay on H. influenzae strains (setting [18]), above 32 µg/mL; in the assay on S. pneumoniae strains (setting [19]) it was above 32 µg/mL; in the assay with S. pneumoniae strains (setting [20]), above 32 µg/mL. Moreover, the MIC in the assay with S. pneumoniae strains (setting [21]), in the assay on S. pneumoniae strains (setting [22]), in the assay with S. pneumoniae strains (setting [23]), in the assay on E. coli strains, in the assay on A. baumannii strains and against K. pneumoniae strains was above 32 µg/mL in each case. For the same molecule, the MIC in the assay with S. aureus strains (setting [24]) was above 32 µg/mL; with S. aureus strains (setting [25]) it was above 32 µg/mL; in the assay with S. aureus strains (setting [26]), above 32 µg/mL; in the assay with S. aureus strains (setting [27]), above 32 µg/mL; with E. coli (MC4100) (Escherichia coli, round 2, read-out: MIC) it was above 32 µg/mL.
In the case of `CC[C@H]1OC(=O)[C@H](C)C(=O)[C@H](C)[C@@H](O[C@@H]2OC(C)CC(N(C)C)C2O)[C@](C)(OC/C=C/c2cnc3ccccc3c2)C[C@@H](C)CN[C@H](C)[C@H]2NC(=O)O[C@@]21C` (stereo partly shown) [FSM-20919], the MIC was 0.5 µg/mL (≈ 0.652 µM) in [1] (setting [29]); 0.25 µg/mL (≈ 0.326 µM) in [1] (setting [16]); 0.5 µg/mL (≈ 0.652 µM) in the assay on E. faecalis strains; 1 µg/mL (≈ 1.3 µM) in the assay on H. influenzae strains (setting [17]); 4 µg/mL (≈ 5.22 µM) with H. influenzae strains (setting [18]); at most 0.0625 µg/mL with S. pneumoniae strains (setting [19]). Moreover, the MIC was 0.5 µg/mL (≈ 0.652 µM) in the assay on S. pneumoniae strains (setting [20]); 32 µg/mL (≈ 41.7 µM) with S. pneumoniae strains (setting [21]); 32 µg/mL (≈ 41.7 µM) in the assay with S. pneumoniae strains (setting [22]); at most 0.0625 µg/mL in the assay on S. pneumoniae strains (setting [23]); 4 µg/mL (≈ 5.22 µM) in the assay with E. coli strains; 16 µg/mL (≈ 20.9 µM) with A. baumannii strains. The MIC is 16 µg/mL (≈ 20.9 µM) against K. pneumoniae strains; 0.25 µg/mL (≈ 0.326 µM) in the assay with S. aureus strains (setting [24]); above 32 µg/mL with S. aureus strains (S. aureus 183, read-out: MIC S. aureus (183)); above 32 µg/mL with S. aureus strains (setting [25]); 0.25 µg/mL (≈ 0.326 µM) in the assay on S. aureus strains (setting [26]); 0.5 µg/mL (≈ 0.652 µM) in the assay on S. aureus strains (setting [27]). In addition, the MIC in the assay on E. coli (MC4100) (setting [28]) and with E. coli (MC4100) (round 2) was 2 µg/mL (≈ 2.61 µM) in each case.
